Columns and labels:
[1] = target: T1, ABL1(Q252H)-phosphorylated (Homo sapiens, UniProt P00519, Q252H); test: KinomeScan; format: binding; conditions: 1uM
T1 construct: purchased DiscoveRx KINOMEscan

ARK5 = target: T2, ARK5 (Homo sapiens, UniProt O60285); test: KinomeScan; format: binding; conditions: 1uM
T2 construct: purchased DiscoveRx KINOMEscan

AURKB = target: T3, AURKB (Homo sapiens, UniProt Q96GD4); test: KinomeScan; format: binding; conditions: 1uM
T3 construct: purchased DiscoveRx KINOMEscan

CDK2 = target: T4, CDK2 (Homo sapiens, UniProt P24941); test: KinomeScan; format: binding; conditions: 1uM
T4 construct: purchased DiscoveRx KINOMEscan

DCAMKL1 = target: T5, DCAMKL1 (Homo sapiens, UniProt O15075); test: KinomeScan; format: binding; conditions: 1uM
T5 construct: purchased DiscoveRx KINOMEscan

EPHB4 = target: T6, EPHB4 (Homo sapiens, UniProt P54760); test: KinomeScan; format: binding; conditions: 1uM
T6 construct: purchased DiscoveRx KINOMEscan

ERBB2 = target: T7, ERBB2 (Homo sapiens, UniProt P04626); test: KinomeScan; format: binding; conditions: 1uM
T7 construct: purchased DiscoveRx KINOMEscan

FLT4 = target: T8, FLT4 (Homo sapiens, UniProt P35916); test: KinomeScan; format: binding; conditions: 1uM
T8 construct: purchased DiscoveRx KINOMEscan

HIPK4 = target: T9, HIPK4 (Homo sapiens, UniProt Q8NE63); test: KinomeScan; format: binding; conditions: 1uM
T9 construct: purchased DiscoveRx KINOMEscan

[2] = target: T10, JAK2(JH1domain-catalytic) (Homo sapiens, UniProt O60674); test: KinomeScan; format: binding; conditions: 1uM
T10 construct: JAK2(JH1domain-catalytic); purchased DiscoveRx KINOMEscan

[3] = target: T11, JAK3(JH1domain-catalytic) (Homo sapiens, UniProt P52333); test: KinomeScan; format: binding; conditions: 1uM
T11 construct: JAK3(JH1domain-catalytic); purchased DiscoveRx KINOMEscan

LATS2 = target: T12, LATS2 (Homo sapiens, UniProt Q9NRM7); test: KinomeScan; format: binding; conditions: 1uM
T12 construct: purchased DiscoveRx KINOMEscan

MAP3K4 = target: T13, MAP3K4 (Homo sapiens, UniProt Q9Y6R4); test: KinomeScan; format: binding; conditions: 1uM
T13 construct: purchased DiscoveRx KINOMEscan

MARK2 = target: T14, MARK2 (Homo sapiens, UniProt Q7KZI7); test: KinomeScan; format: binding; conditions: 1uM
T14 construct: purchased DiscoveRx KINOMEscan

MEK6 = target: T15, MEK6 (Homo sapiens, UniProt P52564); test: KinomeScan; format: binding; conditions: 1uM
T15 construct: purchased DiscoveRx KINOMEscan

MLK2 = target: T16, MLK2 (Homo sapiens, UniProt Q02779); test: KinomeScan; format: binding; conditions: 1uM
T16 construct: purchased DiscoveRx KINOMEscan

MST2 = target: T17, MST2 (Homo sapiens, UniProt Q13188); test: KinomeScan; format: binding; conditions: 1uM
T17 construct: purchased DiscoveRx KINOMEscan

p38-gamma = target: T18, p38-gamma (Homo sapiens, UniProt P53778); test: KinomeScan; format: binding; conditions: 1uM
T18 construct: purchased DiscoveRx KINOMEscan

PIK3CA(H1047Y) = target: T19, PIK3CA(H1047Y) (Homo sapiens, UniProt P42336, H1047Y); test: KinomeScan; format: binding; conditions: 1uM
T19 construct: purchased DiscoveRx KINOMEscan

PIK3CA(Q546K) = target: T20, PIK3CA(Q546K) (Homo sapiens, UniProt P42336, Q546K); test: KinomeScan; format: binding; conditions: 1uM
T20 construct: purchased DiscoveRx KINOMEscan

PRKD3 = target: T21, PRKD3 (Homo sapiens, UniProt O94806); test: KinomeScan; format: binding; conditions: 1uM
T21 construct: purchased DiscoveRx KINOMEscan

[4] = target: T22, RPS6KA5(Kin.Dom.1-N-terminal) (Homo sapiens, UniProt O75582); test: KinomeScan; format: binding; conditions: 1uM
T22 construct: RPS6KA5(Kin.Dom.1-N-terminal); purchased DiscoveRx KINOMEscan

STK39 = target: T23, STK39 (Homo sapiens, UniProt Q9UEW8); test: KinomeScan; format: binding; conditions: 1uM
T23 construct: purchased DiscoveRx KINOMEscan

TRKB = target: T24, TRKB (Homo sapiens, UniProt Q16620); test: KinomeScan; format: binding; conditions: 1uM
T24 construct: purchased DiscoveRx KINOMEscan

TRPM6 = target: T25, TRPM6 (Homo sapiens, UniProt Q9BX84); test: KinomeScan; format: binding; conditions: 1uM
T25 construct: purchased DiscoveRx KINOMEscan

PIK3C2B = target: T26, PIK3C2B (Homo sapiens, UniProt O00750); test: ADP-glo biochemical assay
T26 construct: purchased Invitrogen
Procedure: The reaction in each tube was started immediately by adding ATP and kept going for an hour under 37°C. After the tube cooled for 5 minutes at room temperature, 5 μL solvent reactions were carried out in a 384-well plate. Then 5 μL of ADP-Glo™ reagent was added into each well to stop the reaction and consume the remaining ADP within 40 minutes. At the end, 10 μL of kinase detection reagent was added into the well and incubated for 30 minutes to produce a luminescence signal. Luminescence signal was measured with an automated plate reader (Perkin-Elmer Envision) and each measurement was performed in triplicate.

AMO-1 = test: Anti-proliferative assay; format: cell-based; conditions: Homo sapiens, AMO1; AMO-1, MM; 72 hours, CellTiter-Glo
Procedure: (§1) Cells were grown in 96-well culture plates (3000-4000/well). […] Cell proliferation was determined after treatment with compounds for 72 hours. Cell viability was measured using the CellTiter–Glo Assay Kit (Promega, USA), according to the manufacturer's instructions, and luminescence was measured in a multi-label reader (Envision, PerkinElmer, USA). Data were normalized to control groups (DMSO) and represented by the mean of three independent measurements with standard error <20%. GI50 values were calculated using Prism 5.0 (GraphPad Software, San Diego, CA).

HL-60 = test: Anti-proliferative assay; format: cell-based; conditions: Homo sapiens; HL-60, AML-M2; 72 hours, CellTiter-Glo
Procedure: as §1

JVM-2 = test: Anti-proliferative assay; format: cell-based; conditions: Homo sapiens; JVM-2, Mantle cell lymphoma; 72 hours, CellTiter-Glo
Procedure: as §1

MEC-2 = test: Anti-proliferative assay; format: cell-based; conditions: Homo sapiens, MEC2; MEC-2, CLL; 72 hours, CellTiter-Glo
Procedure: as §1

MOLM-13 = test: Anti-proliferative assay; format: cell-based; conditions: Homo sapiens; MOLM-13, AML-M5; 72 hours, CellTiter-Glo
Procedure: as §1

NALM-6 = test: Anti-proliferative assay; format: cell-based; conditions: Homo sapiens, 72 hours, CellTiter-Glo
Procedure: as §1

NOMO-1 = test: Anti-proliferative assay; format: cell-based; conditions: Homo sapiens; NOMO-1, AML-M5; 72 hours, CellTiter-Glo
Procedure: as §1

PF382 = test: Anti-proliferative assay; format: cell-based; conditions: Homo sapiens, PF-382; PF382, ALL; 72 hours, CellTiter-Glo
Procedure: as §1

RPMI8226 = test: Anti-proliferative assay; format: cell-based; conditions: Homo sapiens, RPMI-8226; RPMI8226, MM; 72 hours, CellTiter-Glo
Procedure: as §1

Ramos(new) = test: Anti-proliferative assay; format: cell-based; conditions: Homo sapiens, Burrkit lymphoma, 72 hours, CellTiter-Glo
Procedure: as §1

SKM-1 = test: Anti-proliferative assay; format: cell-based; conditions: Homo sapiens; SKM-1, AML-M5; 72 hours, CellTiter-Glo
Procedure: as §1

T8 sequence (P35916 25-1363): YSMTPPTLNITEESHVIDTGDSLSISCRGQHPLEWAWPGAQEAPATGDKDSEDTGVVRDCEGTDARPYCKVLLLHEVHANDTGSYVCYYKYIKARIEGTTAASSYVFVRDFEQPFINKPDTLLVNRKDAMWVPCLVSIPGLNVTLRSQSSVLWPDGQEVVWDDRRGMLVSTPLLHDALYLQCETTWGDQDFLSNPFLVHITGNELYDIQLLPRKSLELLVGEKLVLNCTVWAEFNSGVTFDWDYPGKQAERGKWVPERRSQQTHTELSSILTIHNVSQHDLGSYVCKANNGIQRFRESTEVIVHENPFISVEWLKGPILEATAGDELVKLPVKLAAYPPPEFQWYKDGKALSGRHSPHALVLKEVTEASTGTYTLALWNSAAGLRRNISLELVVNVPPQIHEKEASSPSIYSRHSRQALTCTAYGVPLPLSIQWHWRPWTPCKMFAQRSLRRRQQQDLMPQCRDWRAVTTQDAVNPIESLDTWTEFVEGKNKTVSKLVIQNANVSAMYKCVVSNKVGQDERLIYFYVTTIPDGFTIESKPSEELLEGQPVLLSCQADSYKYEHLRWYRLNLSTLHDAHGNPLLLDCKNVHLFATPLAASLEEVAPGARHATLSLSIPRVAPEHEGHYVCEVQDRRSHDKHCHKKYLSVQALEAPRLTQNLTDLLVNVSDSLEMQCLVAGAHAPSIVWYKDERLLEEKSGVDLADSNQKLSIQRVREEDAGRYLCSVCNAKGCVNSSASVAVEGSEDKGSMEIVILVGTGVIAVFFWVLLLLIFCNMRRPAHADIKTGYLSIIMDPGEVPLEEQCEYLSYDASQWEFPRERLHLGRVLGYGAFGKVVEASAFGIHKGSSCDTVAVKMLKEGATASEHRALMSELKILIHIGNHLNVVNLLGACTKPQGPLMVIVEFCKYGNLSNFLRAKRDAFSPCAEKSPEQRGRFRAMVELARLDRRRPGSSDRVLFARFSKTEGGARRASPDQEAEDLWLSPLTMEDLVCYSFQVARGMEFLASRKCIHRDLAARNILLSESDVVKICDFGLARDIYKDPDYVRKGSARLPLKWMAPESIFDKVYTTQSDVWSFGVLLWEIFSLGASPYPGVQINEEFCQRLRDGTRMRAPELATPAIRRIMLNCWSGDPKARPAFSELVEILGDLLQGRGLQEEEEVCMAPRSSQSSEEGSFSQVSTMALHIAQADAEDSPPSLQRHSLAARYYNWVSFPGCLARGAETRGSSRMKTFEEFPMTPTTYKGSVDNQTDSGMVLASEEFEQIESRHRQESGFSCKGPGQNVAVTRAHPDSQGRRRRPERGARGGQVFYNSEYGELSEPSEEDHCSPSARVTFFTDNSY
T18 sequence (P53778 whole entry): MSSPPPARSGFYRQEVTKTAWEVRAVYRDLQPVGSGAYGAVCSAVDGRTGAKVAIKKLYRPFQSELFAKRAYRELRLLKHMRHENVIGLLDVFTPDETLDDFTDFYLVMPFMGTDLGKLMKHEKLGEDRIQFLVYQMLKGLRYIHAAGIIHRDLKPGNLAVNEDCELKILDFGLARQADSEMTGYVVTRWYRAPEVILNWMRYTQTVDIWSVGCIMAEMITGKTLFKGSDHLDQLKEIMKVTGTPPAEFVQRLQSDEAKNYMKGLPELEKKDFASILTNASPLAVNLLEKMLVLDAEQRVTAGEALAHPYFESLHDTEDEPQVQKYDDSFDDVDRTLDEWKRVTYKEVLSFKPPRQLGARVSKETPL
T7 sequence (P04626 23-1255): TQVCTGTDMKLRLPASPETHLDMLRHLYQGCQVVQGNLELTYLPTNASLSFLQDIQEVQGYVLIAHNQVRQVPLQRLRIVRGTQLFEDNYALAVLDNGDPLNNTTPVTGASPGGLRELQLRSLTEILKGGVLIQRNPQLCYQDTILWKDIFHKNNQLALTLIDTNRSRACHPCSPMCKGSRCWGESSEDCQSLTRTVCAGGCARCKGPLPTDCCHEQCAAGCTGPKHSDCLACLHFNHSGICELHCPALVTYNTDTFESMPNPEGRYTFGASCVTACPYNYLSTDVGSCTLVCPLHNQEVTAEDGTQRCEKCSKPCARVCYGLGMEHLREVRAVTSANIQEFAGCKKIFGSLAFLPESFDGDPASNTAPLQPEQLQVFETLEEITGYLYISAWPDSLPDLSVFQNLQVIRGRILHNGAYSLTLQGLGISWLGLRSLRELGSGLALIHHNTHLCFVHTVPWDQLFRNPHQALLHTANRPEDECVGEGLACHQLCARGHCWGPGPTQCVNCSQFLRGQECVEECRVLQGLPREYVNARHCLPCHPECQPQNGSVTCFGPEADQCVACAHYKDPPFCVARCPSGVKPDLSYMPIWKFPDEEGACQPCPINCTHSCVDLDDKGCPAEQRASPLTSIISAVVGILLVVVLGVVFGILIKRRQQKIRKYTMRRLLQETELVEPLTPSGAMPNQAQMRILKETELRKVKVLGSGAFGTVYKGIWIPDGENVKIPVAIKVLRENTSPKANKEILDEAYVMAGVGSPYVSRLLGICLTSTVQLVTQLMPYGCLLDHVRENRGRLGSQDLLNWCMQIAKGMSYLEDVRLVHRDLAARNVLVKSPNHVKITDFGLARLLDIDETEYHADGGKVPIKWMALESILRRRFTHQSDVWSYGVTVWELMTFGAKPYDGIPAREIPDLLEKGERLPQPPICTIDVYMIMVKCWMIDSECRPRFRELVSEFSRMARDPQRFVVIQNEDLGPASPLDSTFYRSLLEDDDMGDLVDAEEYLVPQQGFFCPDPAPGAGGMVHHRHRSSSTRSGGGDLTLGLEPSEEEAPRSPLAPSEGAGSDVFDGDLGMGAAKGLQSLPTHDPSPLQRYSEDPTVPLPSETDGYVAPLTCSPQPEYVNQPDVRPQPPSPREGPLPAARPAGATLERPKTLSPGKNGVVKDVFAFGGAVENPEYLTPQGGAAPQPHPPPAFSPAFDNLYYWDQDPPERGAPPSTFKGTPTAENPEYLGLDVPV
T5 sequence (O15075 whole entry): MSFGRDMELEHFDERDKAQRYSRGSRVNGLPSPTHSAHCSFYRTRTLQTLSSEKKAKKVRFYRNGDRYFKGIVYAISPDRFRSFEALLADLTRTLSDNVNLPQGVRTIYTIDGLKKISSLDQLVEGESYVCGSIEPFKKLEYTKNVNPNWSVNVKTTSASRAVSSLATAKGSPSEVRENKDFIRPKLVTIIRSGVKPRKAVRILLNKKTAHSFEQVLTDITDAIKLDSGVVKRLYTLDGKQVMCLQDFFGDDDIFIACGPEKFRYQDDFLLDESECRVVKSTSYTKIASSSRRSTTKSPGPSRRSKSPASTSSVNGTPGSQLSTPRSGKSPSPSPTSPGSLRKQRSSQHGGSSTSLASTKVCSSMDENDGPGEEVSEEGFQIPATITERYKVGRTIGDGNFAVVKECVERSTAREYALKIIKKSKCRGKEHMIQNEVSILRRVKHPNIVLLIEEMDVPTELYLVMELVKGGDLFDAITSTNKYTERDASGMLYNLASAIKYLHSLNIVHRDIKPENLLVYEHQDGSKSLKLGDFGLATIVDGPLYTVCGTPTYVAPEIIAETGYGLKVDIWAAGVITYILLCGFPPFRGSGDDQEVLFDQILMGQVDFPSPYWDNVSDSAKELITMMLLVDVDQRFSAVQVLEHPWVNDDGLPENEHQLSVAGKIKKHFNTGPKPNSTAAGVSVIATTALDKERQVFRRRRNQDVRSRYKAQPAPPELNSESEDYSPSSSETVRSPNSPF
T17 sequence (Q13188 whole entry): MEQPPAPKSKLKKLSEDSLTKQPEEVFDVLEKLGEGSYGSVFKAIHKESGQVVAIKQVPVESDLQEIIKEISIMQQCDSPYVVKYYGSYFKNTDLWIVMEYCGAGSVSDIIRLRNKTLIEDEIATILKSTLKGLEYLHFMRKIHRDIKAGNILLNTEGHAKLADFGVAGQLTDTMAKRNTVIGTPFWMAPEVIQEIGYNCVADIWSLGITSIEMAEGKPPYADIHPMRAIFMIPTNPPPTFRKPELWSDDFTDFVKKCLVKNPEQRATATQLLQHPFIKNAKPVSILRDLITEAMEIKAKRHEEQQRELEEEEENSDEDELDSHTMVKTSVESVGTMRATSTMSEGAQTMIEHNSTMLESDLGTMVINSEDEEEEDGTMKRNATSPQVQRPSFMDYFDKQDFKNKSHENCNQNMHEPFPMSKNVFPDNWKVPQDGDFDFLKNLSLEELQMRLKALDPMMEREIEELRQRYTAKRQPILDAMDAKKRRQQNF
T14 sequence (Q7KZI7 whole entry): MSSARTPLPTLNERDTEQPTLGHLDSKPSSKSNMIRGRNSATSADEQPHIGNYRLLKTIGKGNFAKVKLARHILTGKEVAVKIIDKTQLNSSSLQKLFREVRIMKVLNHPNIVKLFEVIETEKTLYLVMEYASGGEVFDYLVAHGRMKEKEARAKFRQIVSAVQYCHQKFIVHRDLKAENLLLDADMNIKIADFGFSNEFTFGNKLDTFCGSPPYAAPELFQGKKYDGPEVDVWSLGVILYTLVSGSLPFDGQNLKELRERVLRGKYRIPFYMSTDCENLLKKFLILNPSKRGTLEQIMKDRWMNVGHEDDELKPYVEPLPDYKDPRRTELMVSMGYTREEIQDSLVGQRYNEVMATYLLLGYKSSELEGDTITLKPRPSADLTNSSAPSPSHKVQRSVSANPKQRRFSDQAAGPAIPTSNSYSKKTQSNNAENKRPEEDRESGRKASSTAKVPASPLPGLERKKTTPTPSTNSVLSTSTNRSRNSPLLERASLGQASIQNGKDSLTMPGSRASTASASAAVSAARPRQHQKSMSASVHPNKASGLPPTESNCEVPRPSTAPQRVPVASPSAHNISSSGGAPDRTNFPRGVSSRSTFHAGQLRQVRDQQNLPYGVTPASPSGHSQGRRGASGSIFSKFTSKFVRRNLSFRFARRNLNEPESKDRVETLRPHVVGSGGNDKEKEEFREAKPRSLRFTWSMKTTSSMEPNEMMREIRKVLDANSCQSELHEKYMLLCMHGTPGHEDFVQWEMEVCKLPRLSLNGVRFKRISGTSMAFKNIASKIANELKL

## Cc1nc(NC(=O)[C@@H](N)C(C)C)sc1-c1cnc(Cl)c(NS(=O)(=O)c2ccccc2)c1 [PI3KD-IN-015]
[1]
  KinomeScan ABL1(Q252H)-phosphorylated: 90
ARK5
  KinomeScan ARK5: 87
AURKB
  KinomeScan AURKB: 100
CDK2
  KinomeScan CDK2: 88
DCAMKL1
  KinomeScan DCAMKL1: 61
EPHB4
  KinomeScan EPHB4: 100
ERBB2
  KinomeScan ERBB2: 100
FLT4
  KinomeScan FLT4: 93
HIPK4
  KinomeScan HIPK4: 83
[2]
  KinomeScan JAK2(JH1domain-catalytic): 96
[3]
  KinomeScan JAK3(JH1domain-catalytic): 98
LATS2
  KinomeScan LATS2: 100
MAP3K4
  KinomeScan MAP3K4: 100
MARK2
  KinomeScan MARK2: 95
MEK6
  KinomeScan MEK6: 100
MLK2
  KinomeScan MLK2: 89
MST2
  KinomeScan MST2: 87
p38-gamma
  KinomeScan p38-gamma: 86
PIK3CA(H1047Y)
  KinomeScan PIK3CA(H1047Y): 4.4
PIK3CA(Q546K)
  KinomeScan PIK3CA(Q546K): 4.1
PRKD3
  KinomeScan PRKD3: 100
[4]
  KinomeScan RPS6KA5(Kin.Dom.1-N-terminal): 100
STK39
  KinomeScan STK39: 100
TRKB
  KinomeScan TRKB: 100
TRPM6
  KinomeScan TRPM6: 100
PIK3C2B
  IC50: > 10000 nM
AMO-1
  GI50: 1100 nM
HL-60
  GI50: 2300 nM
JVM-2
  GI50: > 10000 nM
MEC-2
  GI50: > 10000 nM
MOLM-13
  GI50: 940 nM
NALM-6
  GI50: 1800 nM
NOMO-1
  GI50: 1400 nM
PF382
  GI50: 3200 nM
RPMI8226
  GI50: 2500 nM
Ramos(new)
  GI50: 2000 nM
SKM-1
  GI50: 2600 nM
